{"source": "paper PMC9866218", "about": "“Characterization and Chemical Synthesis of Cm39 (α-KTx 4.8): A Scorpion Toxin That Inhibits Voltage-Gated K^+ Channel KV1.2 and Small- and Intermediate-Conductance Ca^2+-Activated K^+ Channels KCa2.2 and KCa3.1” (Toxins, 2023)", "key": {"[1]": {"target": "T1, hKV1.2 (Homo sapiens, UniProt P16389)", "T1 construct": "GFP (vector pCMV6-AC-GFP); host or cells: CHO cells, transient transfection", "T1 sequence (P16389 whole entry)": "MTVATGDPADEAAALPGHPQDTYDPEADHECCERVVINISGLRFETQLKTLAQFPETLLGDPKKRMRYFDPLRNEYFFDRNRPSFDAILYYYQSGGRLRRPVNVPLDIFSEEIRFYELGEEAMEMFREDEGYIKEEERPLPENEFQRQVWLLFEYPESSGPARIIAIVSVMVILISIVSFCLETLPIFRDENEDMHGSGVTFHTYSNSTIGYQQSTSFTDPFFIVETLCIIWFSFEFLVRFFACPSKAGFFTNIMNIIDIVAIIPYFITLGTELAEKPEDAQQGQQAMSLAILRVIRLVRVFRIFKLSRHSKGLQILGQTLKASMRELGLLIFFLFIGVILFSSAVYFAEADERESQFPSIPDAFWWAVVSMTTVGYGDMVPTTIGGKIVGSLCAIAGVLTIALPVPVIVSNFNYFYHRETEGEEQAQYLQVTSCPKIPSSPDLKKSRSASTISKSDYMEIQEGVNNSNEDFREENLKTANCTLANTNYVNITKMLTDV", "assay": "Conductance-voltage (G-V) relationship of KV1.2", "type": "cell-based", "experimental": "Mostly, scorpion toxins inhibit the KV channels by physically occluding the pore region of the channel thereby preventing the flow of K^+ ions. […] To confirm the blocking mechanism of Cm39 we determined the conductance–voltage (G–V) relationship for KV1.2 in the absence and presence of the toxin. Whole-cell currents of KV1.2 expressing CHO cells were recorded by applying the 300 ms long depolarization pulses ranging from −70 to +80 in 10 mV steps from Vh of −120 mV. […] The conductance values were calculated for each voltage step, normalized to the maximum conductance and plotted as a function of membrane potential (Em) as shown in Figure 4E. […] The midpoint voltage (V50) of the G–V relationship in the control solution (−1.0 ± 4.8, n = 4) was statistically similar to the V50 value at equilibrium block with 65 nM sCm39 (1.6 ± 4.0, n = 4) as shown in Figure 4F.\nThose plasmids which lack a fluorescent tag were co-transfected with a plasmid encoding GFP. Transfections were performed at a GFP:channel DNA molar ratio of 1:10 using the Lipofectamine 2000 kit (Invitrogen) according to the manufacturer’s protocol. GFP expressing cells were identified with the Nikon TE 2000U fluorescence microscope (Nikon, Tokyo, Japan) and used for current recordings (~60–70% success rate for co-transfection). Generally, currents were recorded 24 to 48 h post transfection.\nFor the measurement of KV1.x, mKCa1.1 and NaV1.x currents the extracellular solution was composed of (in mM) 145 NaCl, 5 KCl, 2.5 CaCl2, 1 MgCl2, 10 HEPES and 5.5 glucose, pH 7.35. In the HK-150 and Na^+-free bath solution bath all Na^+ was substituted by K^+ or Choline-Cl, respectively, other ingredients remained unchanged. In the various TEA^+-containing solutions, Na^+ was substituted by tetraethylammonium-Cl in equimolar concentration (Figure 3). The bath solution for KCa2.2 and KCa3.1 consisted of (in mM) 145 L-Aspartic Na^+ salt, 5 KCl, 2.5 CaCl2, 1 MgCl2, 5.5 glucose and 10 HEPES, pH 7.4 and for KV11.1 (in mM) 140 Choline-Cl, 5 KCl, 2 MgCl2, 2 CaCl2, 10 HEPES, 20 glucose and 0.1 CdCl2, pH 7.35. The osmolarity of bath solutions was ranging between 302 to 308 mOsm/L. A total of 0.1 mg/mL bovine serum albumin (BSA, Sigma-Aldrich, Budapest, Hungary) was added to all the bath solutions before the patch-clamp assay to avoid toxin adsorption to the plastic surfaces of the perfusion system. Internal or pipette solution for recording KV1.x and mKCa1.1 currents consisted of (in mM) 140 KF, 2 MgCl2, 1 CaCl2, 11 EGTA and 10 HEPES, pH 7.22. […]\nWhole-cell currents were recorded in voltage-clamped cells following standard protocols by using a Multiclamp 700B amplifier connected to a computer with Axon Digidata1440 digitizer and for data acquisition, Clampex 10.7 software was used (Molecular Devices). […]"}, "[2]": {"test_system": "hKV1.3", "type": "cell-based, human", "source_text": "We, therefore, aimed at testing the pharmacological activity of sCm39 on a battery of various potassium and sodium ion channels. Among the tested channels were six members of human voltage-gated K^+ (hKV) channels from Shaker family, hKV1.1-hKV1.6 (Figure 3A–F) and three members of Ca^2+-activated potassium channel; hKCa2.2 (SK2, Figure 3I), the small-conductance Ca^2+-activated channel; hKCa3.1 (IKCa1, SK4. Figure 3J), the intermediate-conductance Ca^2+-activated channel expressed in T lymphocytes; and mKCa1.1 (BK, Slo1, MaxiK, Figure 3H), the large-conductance voltage- and Ca^2+-activated channel of mice. In addition, we also screened the effect of Cm39 on hKV11.1 (hERG1, Figure 3G), a voltage-gated cardiac K^+ channel, and two human voltage-gated sodium (hNaV) channels, hNaV1.4 (Figure 3K) and hNaV1.5 (Figure 3L), expressed in skeletal and cardiac muscles, respectively. These ion channels were heterologously expressed in the CHO or HEK cell lines except for KV1.3. Human peripheral T lymphocytes. They were stimulated with Phytohemagglutinin A (PHA) to increase the KV1.3 channel expression, and Ca^2+-free intracellular solution was used to avoid KCa3.1 channel activation. Appropriate depolarization protocols were used to record ionic currents in voltage-clamped cells (see Figure 3 insets and Material and Methods for details). Freshly dissolved sCm39 in extracellular solution was applied at 1 µM concentration on the cell using a custom-built micro-perfusion system at ~200 µL/min flow rate.\nFor the measurement of KV1.x, mKCa1.1 and NaV1.x currents the extracellular solution was composed of (in mM) 145 NaCl, 5 KCl, 2.5 CaCl2, 1 MgCl2, 10 HEPES and 5.5 glucose, pH 7.35. In the HK-150 and Na^+-free bath solution bath all Na^+ was substituted by K^+ or Choline-Cl, respectively, other ingredients remained unchanged. […]\nWhole-cell currents were recorded in voltage-clamped cells following standard protocols by using a Multiclamp 700B amplifier connected to a computer with Axon Digidata1440 digitizer and for data acquisition, Clampex 10.7 software was used (Molecular Devices)."}}, "note": "“Also recorded” adds a separate entry of the source.", "data": [{"smiles": "CC[C@H](C)[C@@H]1NC(=O)[C@H](C)NC(=O)[C@H](C)NC(=O)[C@H](CCCCN)NC(=O)[C@@H]2CSSC[C@@H](C(=O)N[C@@H](Cc3ccc(O)cc3)C(=O)N[C@@H](Cc3ccc(O)cc3)C(=O)O)NC(=O)[C@H](CCCCN)NC(=O)[C@@H]3CSSC[C@H](NC(=O)[C@H](CCC(=O)O)NC(=O)[C@H](CO)NC(=O)[C@H](CO)NC(=O)[C@H](CO)NC(=O)[C@H](CCCCN)NC(=O)[C@@H](NC(=O)[C@H](CCCCN)NC(=O)[C@H](Cc4c[nH]cn4)NC(=O)[C@H](CC(N)=O)NC(=O)[C@@H](NC(=O)[C@H](Cc4ccccc4)NC(=O)[C@@H](N)[C@@H](C)O)[C@@H](C)CC)CSSC[C@H](NC(=O)[C@H](CCCCN)NC(=O)CNC(=O)[C@H](CO)NC(=O)[C@H](C)NC(=O)[C@H](CCCNC(=N)N)NC(=O)CNC1=O)C(=O)N[C@@H]([C@@H](C)CC)C(=O)N[C@@H](CC(N)=O)C(=O)N[C@@H](CO)C(=O)N[C@@H]([C@@H](C)O)C(=O)N3)C(=O)N[C@@H](CC(C)C)C(=O)N1CCC[C@H]1C(=O)N[C@@H](C)C(=O)N2", "note": "[Cm39]", "values": [{"measurement": "effect on voltage dependence of steady-state activation (conductance–voltage relationship)", "setting": "[1]; 65 nM, CHO cells", "result": "not altered; also recorded: completely insensitive"}, {"measurement": "effect on voltage dependence of steady-state activation (conductance–voltage relationship)", "setting": "[1]; 65 nM, CHO cells, listed as sCm9", "result": "did not affect the voltage dependence of steady-state activation"}, {"measurement": "Mann–Whitney p, V50 with vs without toxin", "setting": "[1]; 65 nM, ns = not significant", "result": 0.89}, {"measurement": "midpoint voltage V50 of the G–V relationship", "setting": "[1]; equilibrium block with 65 nM sCm39, n = 4, control solution −1.0 ± 4.8, n = 4, CHO cells, ± SEM", "result": "1.6 ± 4.0"}, {"measurement": "decrease in current", "setting": "[2]; 1 µM, PHA-activated human peripheral T lymphocytes, 3−5 min, n = 3−5", "result": "< 3", "unit": "%"}, {"measurement": "inhibition (in words)", "setting": "[2]; 1 μM, human peripheral T lymphocytes", "result": "does not inhibit; also recorded: did not show any effect"}]}]}
